Results: PubChem BioAssay AID1963975 (Molecular Pharmacology Branch, DTP, NCI, 2024)

System: 624824-186-R-J2-PDC multicell spheroids, viability
Experiment: Anticancer human tumor 624824-186-R-J2-PDC patient-derived colon adenocarcinoma cell line growth inhibition [PI3K]
Details: for IC50: curve of first compound; for viability, T/C: stronger effect = lower value
Description: Combinatorial screen of targeted agents with the PI3K inhibitors inavolisib, alpelisib, duvelisib, and copanlisib in multi-cell type tumor spheroids
A high-throughput screen of multi-cell type tumor spheroids was designed to identify active combinations of targeted small molecules and PI3K pathway inhibitors. Complex spheroids include a stromal component modeled by human endothelial cells (HUVEC) and fibroblasts modeled by human mesenchymal stem cells (MSCs). The concentration ranges selected for each drug and investigational agent were based upon clinically achievable concentrations if the clinical Cmax of the agent was known.
Compounds. The drugs and investigational agents: inavolisib (NSC800729), alpelisib (NSC765974), duvelisib (NSC772469), copanlisib (NSC816437), ipatasertib (NSC767898), afuresertib (NSC778305), talazoparib (NSC767125), sapanisertib (NSC764658), selumetinib (NSC741078), tovorafenib (DAY101, NSC766906), vemurafenib (NSC761431), ravoxertinib (NSC781343), sotorasib (NSC818433), MRTX1133 (NSC 836407), abemaciclib (NSC 768073), palbociclib (NSC758247), venetoclax (NSC 766270), SY5609 (NSC837396), enzalutamide (NSC755605), and darolutamide (NSC825331), were obtained from the National Cancer Institute (NCI) Developmental Therapeutics Program Chemical Repository. The FDA-approved anticancer drug set is available from the NCI Developmental Therapeutics Program. […] The stock solutions were prepared in dimethyl sulfoxide (DMSO, Sigma-Aldrich, St. Louis, MO, cat. D2650) at 800-fold the tested concentration and stored at -70 degrees C prior to their use. All drugs and investigational agents were tested over a range starting from a high concentration at or near the clinical Cmax and decreasing in half-log increments. If the clinical Cmax for an agent had not been determined, the highest concentration tested was 10 microM.
Cell Culture. All cells were maintained in an incubator at 37 degrees C and 5% CO2 with 95% humidity. The PDC lines were cultured according to standard operating procedures established by the NCI PDMR (https://pdmr.cancer.gov/sops/default.htm). All PDCs were thawed and cultured in Matrigel-coated flasks prepared with a working solution of 1X Ham's F-12 nutrient mix, without supplementation (Invitrogen, Waltham, MA, cat. 11765054), 100 U/mL penicillin-streptomycin (Invitrogen, cat. 15140122), and 2.5% Matrigel (Corning Inc., Corning, NY, cat. 354248) for the first three passages. The 354836-022-R-J1-PDC, 475296-252-R-J1-PDC, and 997726-040-R-J2-PDC lines were cultured in 6A media, which includes advanced DMEM/F-12 (Thermo Fisher Scientific, cat. 12634028), 10 mM HEPES (Thermo Fisher Scientific, cat. 15630080), 1X GlutaMAX supplement (Thermo Fisher Scientific, cat. 35050061), 0.1 mg/mL primocin (InvivoGen, San Diego, CA, cat. ant-pm-2), 10% defined fetal bovine serum, heat inactivated (HyClone Laboratories Inc., Logan, UT, cat. SH30070.03HI), 50% L-WRN conditioned media (ATCC, cat. CRL-3276), 1.25 mM N-Acetyl-L-cysteine (Sigma-Aldrich, cat. A9165), 10 mM nicotinamide (Sigma-Aldrich, cat. N0636), 1X B-27 supplement (Thermo Fisher Scientific, cat. 17504044), 1X N-2 supplement (Thermo Fisher Scientific, cat. 17502048), and 10 microM Y-27632 dihydrochloride (Tocris Bioscience, Bristol, United Kingdom, cat. 1254). The 624824-186-R-J2-PDC line was cultured in 6C/Colon 1B media, which includes all 6A media components plus 50 ng/mL human EGF recombinant protein (Thermo Fisher Scientific, cat. PHG0311). […]

[1] = second compound 0.00316 µM, first compound 0.0316 µM
[2] = second compound 0.00316 µM, first compound 0.1 µM
[3] = second compound 0.00316 µM, first compound 0.316 µM
[4] = second compound 0.00316 µM, first compound 1 µM
[5] = second compound 0.00316 µM, first compound 3.16 µM
[6] = second compound 0.00316 µM, first compound 10 µM
[7] = second compound 0.01 µM, first compound 0.0316 µM
[8] = second compound 0.01 µM, first compound 0.1 µM
[9] = second compound 0.01 µM, first compound 0.316 µM
[10] = second compound 0.01 µM, first compound 1 µM
[11] = second compound 0.01 µM, first compound 3.16 µM
[12] = second compound 0.01 µM, first compound 10 µM
[13] = second compound 0.0316 µM, first compound 0.0316 µM
[14] = second compound 0.0316 µM, first compound 0.1 µM
[15] = second compound 0.0316 µM, first compound 0.316 µM
[16] = second compound 0.0316 µM, first compound 1 µM
[17] = second compound 0.0316 µM, first compound 3.16 µM
[18] = second compound 0.0316 µM, first compound 10 µM
[19] = second compound 0.1 µM, first compound 0.0316 µM
[20] = second compound 0.1 µM, first compound 0.1 µM
[21] = second compound 0.1 µM, first compound 0.316 µM
[22] = second compound 0.1 µM, first compound 1 µM
[23] = second compound 0.1 µM, first compound 3.16 µM
[24] = second compound 0.1 µM, first compound 10 µM
[25] = second compound 0.316 µM, first compound 0.0316 µM
[26] = second compound 0.316 µM, first compound 0.1 µM
[27] = second compound 0.316 µM, first compound 0.316 µM
[28] = second compound 0.316 µM, first compound 1 µM
[29] = second compound 0.316 µM, first compound 3.16 µM
[30] = second compound 0.316 µM, first compound 10 µM
[31] = second compound 1 µM, first compound 0.0316 µM
[32] = second compound 1 µM, first compound 0.1 µM
[33] = second compound 1 µM, first compound 0.316 µM
[34] = second compound 1 µM, first compound 1 µM
[35] = second compound 1 µM, first compound 3.16 µM
[36] = second compound 1 µM, first compound 10 µM
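Also: spheroids exposed to agents for 7 days before viability read.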
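For viability, T/C in this document: 100% = DMSO vehicle treated spheroids.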

Structure (SMILES): CC(C)NCC(C(=O)N1CCN(c2ncnc3c2C(C)CC3O)CC1)c1ccc(Cl)cc1 (stereo unspecified) + CC(Nc1ccc2c(c1)OCCn1cc(N3C(=O)OCC3C(F)F)nc1-2)C(N)=O
- IC50 (second compound 0.00316 µM): > 10 µM
- IC50 (second compound 0.01 µM): > 10 µM
- IC50 (second compound 0.0316 µM): > 10 µM
- IC50 (second compound 0.1 µM): > 10 µM
- IC50 (second compound 0.316 µM): > 10 µM
- IC50 (second compound 1 µM): > 10 µM
- viability, T/C [1]: 113%
- viability, T/C [2]: 113%
- viability, T/C [3]: 113%
- viability, T/C [4]: 94.6%
- viability, T/C [5]: 94.9%
- viability, T/C [6]: 92.1%
- viability, T/C [7]: 88.3%
- viability, T/C [8]: 79.1%
- viability, T/C [9]: 72.1%
- viability, T/C [10]: 87%
- viability, T/C [11]: 90.7%
- viability, T/C [12]: 79.7%
- viability, T/C [13]: 98%
- viability, T/C [14]: 95.4%
- viability, T/C [15]: 82.7%
- viability, T/C [16]: 92.8%
- viability, T/C [17]: 95.4%
- viability, T/C [18]: 89.4%
- viability, T/C [19]: 85.7%
- viability, T/C [20]: 84.6%
- viability, T/C [21]: 68%
- viability, T/C [22]: 84.1%
- viability, T/C [23]: 95.1%
- viability, T/C [24]: 70.8%
- viability, T/C [25]: 89.8%
- viability, T/C [26]: 68.3%
- viability, T/C [27]: 86%
- viability, T/C [28]: 86.3%
- viability, T/C [29]: 91.1%
- viability, T/C [30]: 91.5%
- viability, T/C [31]: 95.4%
- viability, T/C [32]: 87.5%
- viability, T/C [33]: 94.1%
- viability, T/C [34]: 83.6%
- viability, T/C [35]: 96.4%
- viability, T/C [36]: 74.2%

Structure (SMILES): CCN1CCN(Cc2ccc(Nc3ncc(F)c(-c4cc(F)c5nc(C)n(C(C)C)c5c4)n3)nc2)CC1 + CC(Nc1ccc2c(c1)OCCn1cc(N3C(=O)OCC3C(F)F)nc1-2)C(N)=O
- IC50 (second compound 0.00316 µM): > 1 µM
- IC50 (second compound 0.01 µM): > 1 µM
- IC50 (second compound 0.0316 µM): > 1 µM
- IC50 (second compound 0.1 µM): > 1 µM
- IC50 (second compound 0.316 µM): > 1 µM
- IC50 (second compound 1 µM): > 1 µM
- viability, T/C (second compound 0.00316 µM, first compound 0.00316 µM): 92.9%
- viability, T/C (second compound 0.00316 µM, first compound 0.01 µM): 87.8%
- viability, T/C [1]: 80.5%
- viability, T/C [2]: 105%
- viability, T/C [3]: 91.5%
- viability, T/C [4]: 118%
- viability, T/C (second compound 0.01 µM, first compound 0.00316 µM): 97.7%
- viability, T/C (second compound 0.01 µM, first compound 0.01 µM): 98.2%
- viability, T/C [7]: 114%
- viability, T/C [8]: 89.2%
- viability, T/C [9]: 92.1%
- viability, T/C [10]: 106%
- viability, T/C (second compound 0.0316 µM, first compound 0.00316 µM): 77.1%
- viability, T/C (second compound 0.0316 µM, first compound 0.01 µM): 86.4%
- viability, T/C [13]: 83.5%
- viability, T/C [14]: 76.3%
- viability, T/C [15]: 97.8%
- viability, T/C [16]: 105%
- viability, T/C (second compound 0.1 µM, first compound 0.00316 µM): 93.4%
- viability, T/C (second compound 0.1 µM, first compound 0.01 µM): 77.6%
- viability, T/C [19]: 86.4%
- viability, T/C [20]: 77.3%
- viability, T/C [21]: 89.4%
- viability, T/C [22]: 119%
- viability, T/C (second compound 0.316 µM, first compound 0.00316 µM): 102%
- viability, T/C (second compound 0.316 µM, first compound 0.01 µM): 89%
- viability, T/C [25]: 87.2%
- viability, T/C [26]: 92.4%
- viability, T/C [27]: 90.1%
- viability, T/C [28]: 105%
- viability, T/C (second compound 1 µM, first compound 0.00316 µM): 85.6%
- viability, T/C (second compound 1 µM, first compound 0.01 µM): 83.7%
- viability, T/C [31]: 90.9%
- viability, T/C [32]: 85.8%
- viability, T/C [33]: 87.2%
- viability, T/C [34]: 96.3%

Structure (SMILES): Cn1ncc(Cl)c1-c1cc(C(=O)NC(CN)Cc2cccc(F)c2)sc1Cl (stereo unspecified) + CC(Nc1ccc2c(c1)OCCn1cc(N3C(=O)OCC3C(F)F)nc1-2)C(N)=O
- IC50 (second compound 0.00316 µM): > 10 µM
- IC50 (second compound 0.01 µM): > 10 µM
- IC50 (second compound 0.0316 µM): > 10 µM
- IC50 (second compound 0.1 µM): > 10 µM
- IC50 (second compound 0.316 µM): > 10 µM
- IC50 (second compound 1 µM): > 10 µM
- viability, T/C [1]: 106%
- viability, T/C [2]: 97.5%
- viability, T/C [3]: 75.8%
- viability, T/C [4]: 87.1%
- viability, T/C [5]: 67.7%
- viability, T/C [6]: 78.8%
- viability, T/C [7]: 107%
- viability, T/C [8]: 78.8%
- viability, T/C [9]: 70.9%
- viability, T/C [10]: 78.8%
- viability, T/C [11]: 79.6%
- viability, T/C [12]: 50.4%
- viability, T/C [13]: 101%
- viability, T/C [14]: 71.9%
- viability, T/C [15]: 75.7%
- viability, T/C [16]: 85.9%
- viability, T/C [17]: 78.7%
- viability, T/C [18]: 58.8%
- viability, T/C [19]: 75%
- viability, T/C [20]: 100%
- viability, T/C [21]: 74.5%
- viability, T/C [22]: 81.8%
- viability, T/C [23]: 76.9%
- viability, T/C [24]: 53.1%
- viability, T/C [25]: 71.3%
- viability, T/C [26]: 81.5%
- viability, T/C [27]: 92.6%
- viability, T/C [28]: 85.1%
- viability, T/C [29]: 75.4%
- viability, T/C [30]: 57.3%
- viability, T/C [31]: 86.7%
- viability, T/C [32]: 77.8%
- viability, T/C [33]: 95.4%
- viability, T/C [34]: 76.7%
- viability, T/C [35]: 75.7%
- viability, T/C [36]: 59.3%
